Measurements taken from patent US9833497B2, “Human originated EGF domain proteins and use of the same” (CHENGDU SOURCEBIO LIMITED-LIABILITY COMPANY, priority 2013, dated 2017).

Key:
Format in all cases: cell-based
Enterobacter cloacae = experiment: MIC against Gram-negative bacteria: Enterobacter cloacae; conditions: for MIC E. cloacae: 96-well plate, 37° C., 10 h
Summary of the method: (§1)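 The recombinant human-originated EGF domain proteins were serially diluted two-fold against bacteria at 5×10^5 CFU/mL in LB medium. After shaken incubation at 37° C, the lowest concentration with no bacterial growth was recorded as the MIC.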

Proteus vulgaris = experiment: MIC against Gram-negative bacteria: Proteus vulgaris; conditions: for MIC P. vulgaris: 96-well plate, 37° C., 10 h
Summary of the method: as §1

E. coli BL21 = experiment: MIC against Gram-negative bacteria: E. coli BL21; conditions: for MIC E. coli BL21: 96-well plate, 37° C., 10 h
Summary of the method: as §1

Moraxella catarrhalis = experiment: MIC against Gram-negative bacteria: Moraxella catarrhalis; conditions: for MIC M. catarrhalis: 96-well plate, 37° C., 10 h
Summary of the method: as §1

Klebsiella pneumonia = experiment: MIC against Gram-negative bacteria: Klebsiella pneumonia; conditions: for MIC K. pneumonia: 96-well plate, 37° C., 10 h
Summary of the method: as §1

Pseudomonas aeruginosa = experiment: MIC against Gram-negative bacteria: Pseudomonas aeruginosa; conditions: for MIC P. aeruginosa: 96-well plate, 37° C., 10 h
Summary of the method: as §1

Proteus mirabilis = experiment: MIC against Gram-negative bacteria: Proteus mirabilis; conditions: for MIC P. mirabilis: 96-well plate, 37° C., 10 h
Summary of the method: as §1

E. coli DH5α = experiment: Antibacterial activity: MIC and growth curve against E. coli DH5α in 96-well plate; conditions: minimal inhibitory concentration against E. coli DH5α; 96-well plate, 5×10^5 CFU/mL, 37° C., judged after 8 h
Summary of the method: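 Log-phase bacteria (OD600 ~0.5) resuspended in LB at 5×10^5 CFU/mL, exposed to recombinant protein at 50, 25, 12.5 μg/mL final in triplicate, 37 °C shaking at 175 rpm. OD600 read every 30 min; MIC is lowest concentration showing no growth.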

Aeromonas hydrophila = experiment: MIC against Gram-negative bacteria: Aeromonas hydrophila; conditions: for MIC A. hydrophila: 96-well plate, 37° C., 10 h
Summary of the method: as §1

Serratia marcescens = experiment: MIC against Gram-negative bacteria: Serratia marcescens; conditions: for MIC S. marcescens: 96-well plate, 37° C., 10 h
Summary of the method: as §1

Citrobacter diversus = experiment: MIC against Gram-negative bacteria: Citrobacter diversus; conditions: for MIC C. diversus: 96-well plate, 37° C., 10 h
Summary of the method: as §1

PRT643 (RVVICHLPCMNGGQCSSRDKCQCPPNFTGKLCQ; listed as Homo sapiens)
MIC E. cloacae (Enterobacter cloacae; 5×10^5 CFU/mL): 12.5 µg/mL
MIC P. vulgaris (Proteus vulgaris; 5×10^5 CFU/mL): 25 µg/mL
MIC E. coli BL21 (E. coli BL21; 5×10^5 CFU/mL): 25 µg/mL
MIC M. catarrhalis (Moraxella catarrhalis; 5×10^5 CFU/mL): 25 µg/mL
MIC K. pneumonia (Klebsiella pneumonia; 5×10^5 CFU/mL): 25 µg/mL
MIC P. aeruginosa (Pseudomonas aeruginosa; 5×10^5 CFU/mL): 50 µg/mL
MIC P. mirabilis (Proteus mirabilis; 5×10^5 CFU/mL): 12.5 µg/mL
MIC (E. coli DH5α): 12.5 µg/mL
MIC A. hydrophila (Aeromonas hydrophila; 5×10^5 CFU/mL): 25 µg/mL
MIC S. marcescens (Serratia marcescens; 5×10^5 CFU/mL): 50 µg/mL
MIC C. diversus (Citrobacter diversus; 5×10^5 CFU/mL): 50 µg/mL

PRT942 (LVNLCSRSPCKNKGTCVQKKAESQCLCPSGWAGAYCD; listed as Homo sapiens)
MIC (Enterobacter cloacae; E. cloacae, 10 h cultivation at 37° C.): 12.5 µg/mL
MIC (Proteus vulgaris; P. vulgaris, 10 h cultivation at 37° C.): 12.5 µg/mL
MIC (E. coli BL21; E. coli BL21, 10 h cultivation at 37° C.): 50 µg/mL
MIC (Moraxella catarrhalis; M. catarrhalis, 10 h cultivation at 37° C.): 12.5 µg/mL
MIC (Klebsiella pneumonia; K. pneumonia, 10 h cultivation at 37° C.): 50 µg/mL
MIC (Pseudomonas aeruginosa; P. aeruginosa, 10 h cultivation at 37° C.): 12.5 µg/mL
MIC (Proteus mirabilis; P. mirabilis, 10 h cultivation at 37° C.): 50 µg/mL
MIC (E. coli DH5α): 25 µg/mL
MIC (Aeromonas hydrophila; A. hydrophila, 10 h cultivation at 37° C.): 25 µg/mL
MIC (Serratia marcescens; S. marcescens, 10 h cultivation at 37° C.): 50 µg/mL
MIC (Citrobacter diversus; C. diversus, 10 h cultivation at 37° C.): 50 µg/mL

PRT1417 (RACHPRCAEHGTCRDGKCECSPGWNGEHCT; listed as Homo sapiens)
MIC against E. cloacae (Enterobacter cloacae; Enterobacter cloacae, 5×10^5 CFU/mL, 10 h cultivation at 37° C.): 12.5 µg/mL
MIC against P. vulgaris (Proteus vulgaris; Proteus vulgaris, 5×10^5 CFU/mL, 10 h cultivation at 37° C.): 50 µg/mL
MIC against E. coli BL21 (E. coli BL21; E. coli BL21, 5×10^5 CFU/mL, 10 h cultivation at 37° C.): 12.5 µg/mL
MIC against M. catarrhalis (Moraxella catarrhalis; Moraxella catarrhalis, 5×10^5 CFU/mL, 10 h cultivation at 37° C.): 12.5 µg/mL
MIC against K. pneumonia (Klebsiella pneumonia; Klebsiella pneumonia, 5×10^5 CFU/mL, 10 h cultivation at 37° C.): 50 µg/mL
MIC against P. aeruginosa (Pseudomonas aeruginosa; Pseudomonas aeruginosa, 5×10^5 CFU/mL, 10 h cultivation at 37° C.): 12.5 µg/mL
MIC against P. mirabilis (Proteus mirabilis; Proteus mirabilis, 5×10^5 CFU/mL, 10 h cultivation at 37° C.): 25 µg/mL
MIC (E. coli DH5α): 25 µg/mL
MIC against A. hydrophila (Aeromonas hydrophila; Aeromonas hydrophila, 5×10^5 CFU/mL, 10 h cultivation at 37° C.): 50 µg/mL
MIC against S. marcescens (Serratia marcescens; Serratia marcescens, 5×10^5 CFU/mL, 10 h cultivation at 37° C.): 25 µg/mL
MIC against C. diversus (Citrobacter diversus; Citrobacter diversus, 5×10^5 CFU/mL, 10 h cultivation at 37° C.): 25 µg/mL

PRT173 (CSSSPCSNGAKCVDLGDAYLCRCQAGFSGRHC; listed as Homo sapiens)
MIC (μg/mL) E. cloacae (Enterobacter cloacae; E. cloacae, 10 h cultivation at 37° C., 5×10^5 CFU/mL): 25 µg/mL
MIC (μg/mL) P. vulgaris (Proteus vulgaris; P. vulgaris, 10 h cultivation at 37° C., 5×10^5 CFU/mL): 12.5 µg/mL
MIC (μg/mL) E. coli BL21 (E. coli BL21; E. coli BL21, 10 h cultivation at 37° C., 5×10^5 CFU/mL): 50 µg/mL
MIC (μg/mL) M. catarrhalis (Moraxella catarrhalis; M. catarrhalis, 10 h cultivation at 37° C., 5×10^5 CFU/mL): 50 µg/mL
MIC (μg/mL) K. pneumonia (Klebsiella pneumonia; K. pneumonia, 10 h cultivation at 37° C., 5×10^5 CFU/mL): 50 µg/mL
MIC (μg/mL) P. aeruginosa (Pseudomonas aeruginosa; P. aeruginosa, 10 h cultivation at 37° C., 5×10^5 CFU/mL): 12.5 µg/mL
MIC (μg/mL) P. mirabilis (Proteus mirabilis; P. mirabilis, 10 h cultivation at 37° C., 5×10^5 CFU/mL): 25 µg/mL
MIC (E. coli DH5α): 12.5 µg/mL
MIC (μg/mL) A. hydrophila (Aeromonas hydrophila; A. hydrophila, 10 h cultivation at 37° C., 5×10^5 CFU/mL): 12.5 µg/mL
MIC (μg/mL) S. marcescens (Serratia marcescens; S. marcescens, 10 h cultivation at 37° C., 5×10^5 CFU/mL): 25 µg/mL
MIC (μg/mL) C. diversus (Citrobacter diversus; C. diversus, 10 h cultivation at 37° C., 5×10^5 CFU/mL): 25 µg/mL

PRT631 (CSCHPQGSVSEQMPCDPVTGQCSCLPHVTARDCSRCYPGFFDLQPGRGCRS; listed as Homo sapiens)
MIC E. cloacae (Enterobacter cloacae; 5×10^5 CFU/mL): 25 µg/mL
MIC P. vulgaris (Proteus vulgaris; 5×10^5 CFU/mL): 12.5 µg/mL
MIC E. coli BL21 (E. coli BL21; 5×10^5 CFU/mL): 12.5 µg/mL
MIC M. catarrhalis (Moraxella catarrhalis; 5×10^5 CFU/mL): 12.5 µg/mL
MIC K. pneumonia (Klebsiella pneumonia; 5×10^5 CFU/mL): 12.5 µg/mL
MIC P. aeruginosa (Pseudomonas aeruginosa; 5×10^5 CFU/mL): 25 µg/mL
MIC P. mirabilis (Proteus mirabilis; 5×10^5 CFU/mL): 25 µg/mL
MIC (E. coli DH5α): 25 µg/mL
MIC A. hydrophila (Aeromonas hydrophila; 5×10^5 CFU/mL): 12.5 µg/mL
MIC S. marcescens (Serratia marcescens; 5×10^5 CFU/mL): 25 µg/mL
MIC C. diversus (Citrobacter diversus; 5×10^5 CFU/mL): 25 µg/mL
